Experimental data taken from US9062125B2, “Use of GIP for the treatment of disorders associated with dysfunctional synaptic transmission” (Innovation Ulster Limited, priority 2007, dated 2015).
Non-standard residues stand in square brackets, D forms with d. No end group written: not given here. *: point of attachment. mPEG = mini-PEG HO—(CH2—O—CH2)n—H, n about 3; Myristoyl = CCCCCCCCCCCCCC(=O)*

How the values were obtained:
Set-up in all cases: species or system rat
Male Wistar rats [1] = experiment: In vivo LTP in hippocampal CA1 (field EPSP slope), strong HFS protocol, icv injection
Source text: (§1) Male Wistar rats weighing 220-280 g were anaesthetised with urethane (ethyl carbamate, 1.8 g/kg, i.p.) for the duration of all experiments. The animals had been obtained from Harlan, United Kingdom (UK).
(§2) A cannula (22 gauge, 0.7 mm outer diameter, 11 mm in length, Bilaney, Kent, UK) was implanted (1.5 mm anterior to bregma, 0.5 mm lateral to the midline and 3.55 mm ventral) into the left hemisphere for intracerebroventricular (icv) injections. Electrodes (tungsten with Teflon coating, Bilaney, Kent, UK) were implanted unilaterally 3.4 mm posterior and 2.5 mm lateral to the midline, and the stimulating electrode 4.2 mm posterior to bregma and 3.8 mm lateral to the midline. […] Recordings of EPSPs were made from the stratum radiatum in the CA1 region of the right hippocampal hemisphere in response to stimulation of the Schaffer collateral/commissural pathway.
(§3) Field EPSPs were recorded on a computerised stimulating and recording unit (PowerLab, ADI instruments, UK) in which the trigger threshold was adjustable. The triggered unit activated a constant current stimulus isolation unit (Neurolog, UK). The data acquisition system was triggered simultaneously to record all events. Sampling speed was at 20 kHz recording of EPSPs.
(§4) The ‘strong’ high frequency stimulation (HFS) protocol for inducing LTP consisted of 3 trains of 200 stimuli, inter-stimulus interval 5 ms (200 Hz), inter-train interval 2 sec. […] The ‘weak’ HFS protocol for inducing LTP consisted of 10 trains of 10 stimuli, inter-stimulus interval 5 ms (200 Hz). The strong HFS was used to test the effects of peptides that impair LTP (beta-amyloid), and the weak HFS was used to test peptides that facilitate LTP. In this form of LTP, the control group is not potentiated at a maximal rate, and LTP can decay slowly over time.
(§5) Stimulation intensity was 70% of the maximum EPSP. LTP was measured as a % of baseline EPSP slope recorded over a 30 min period prior to drug injection and 60 min prior to application of HFS. Baseline was recorded for 30 min and averaged. This value was taken as 100% of the EPSP slope and all recoded values were normalised to this baseline value.
Beta-amyloid(25-35) and other peptides used in this study were synthetised on an Applied Biosystems automated peptides synthesiser (Model 432A) using standard solid-phase Fmoc protocols. […]
(§6) Each group consisted of 6 animals. Data were analysed using a repeated measures two-way ANOVA, or a repeated measures three level two-way ANOVA with post-hoc tests to discriminate between groups (PRISM, GraphPad software Inc, USA).

Male Wistar rats [2] = experiment: In vivo LTP in hippocampal CA1 (field EPSP slope), weak HFS protocol, icv injection; settings: 15 nmol icv, LTP induced 30 min post-injection, n=6
Source text: as §1, §2, §3, §4, §5
Beta-amyloid(25-35) and other peptides used in this study were synthetised on an Applied Biosystems automated peptides synthesiser (Model 432A) using standard solid-phase Fmoc protocols. Peptides were judged pure by reversed phase HPLC on a Waters Millennium 2010 chromatography system, and peptides were subsequently characterised using matrix-assisted laser desorption/ionisation time of flight (MALDI-TOF) mass spectrometry as described previously (Gengler et al., 2006; Hölscher et al., 2007). Peptides were stored in dry form and dissolved in double distilled water before the experiments. 5 μl of peptide solution was injected icv.
as §6

Male Wistar rats [3] = experiment: In vivo prevention of beta-amyloid(25-35)-induced impairment of LTP in hippocampal CA1; settings: n=6, FIG. 5
Source text: as §1
A cannula (22 gauge, 0.7 mm outer diameter, 11 mm in length, Bilaney, Kent, UK) was implanted (1.5 mm anterior to bregma, 0.5 mm lateral to the midline and 3.55 mm ventral) into the left hemisphere for intracerebroventricular (icv) injections. Electrodes (tungsten with Teflon coating, Bilaney, Kent, UK) were implanted unilaterally 3.4 mm posterior and 2.5 mm lateral to the midline, and the stimulating electrode 4.2 mm posterior to bregma and 3.8 mm lateral to the midline. […]
Field EPSPs were recorded on a computerised stimulating and recording unit (PowerLab, ADI instruments, UK) in which the trigger threshold was adjustable. […]
Stimulation intensity was 70% of the maximum EPSP. LTP was measured as a % of baseline EPSP slope recorded over a 30 min period prior to drug injection and 60 min prior to application of HFS. Baseline was recorded for 30 min and averaged. […]
Each group consisted of 6 animals. Data were analysed using a repeated measures two-way ANOVA, or a repeated measures three level two-way ANOVA with post-hoc tests to discriminate between groups (PRISM, GraphPad software Inc, USA). […]

[4] = 15 nmol icv, LTP induced 30 min post-injection, n=6

Ala(1)GIP: human GIP(1-42) in which Tyr at position 1 has been replaced with L-Ala (AAEGTFISDYSIAMDKIHQQDFVNWLLAQKGKKNDWKHNITQ; Synthetic analogue derived from human GIP(1-42))
effect on long-term potentiation (LTP; change in EPSP) compared with control (Male Wistar rats [1]; [4]): attenuated long-term potentiation (LTP) compared with control

D-Ala(2)GIP: human GIP(1-42) in which L-Ala at position 2 has been replaced with D-Ala (Y[dA]EGTFISDYSIAMDKIHQQDFVNWLLAQKGKKNDWKHNITQ)
effect on long-term potentiation (LTP; change in EPSP) compared with control (Male Wistar rats [2]): enhanced long-term potentiation (LTP) compared with control

GIP: Human gastric inhibitory polypeptide, full length 42 amino acid peptide, SEQ ID NO: 1 (YAEGTFISDYSIAMDKIHQQDFVNWLLAQKGKKNDWKHNITQ; listed as Homo sapiens)
effect on long-term potentiation (LTP; change in EPSP) compared with control (Male Wistar rats [2]): increased long-term potentiation (LTP) compared with control

GIP[Lys(37)Myristic acid]: GIP analogue created by Myristic acid addition at an epsilon amino group of Lys(37) (YAEGTFISDYSIAMDKIHQQDFVNWLLAQKGKKNDWK(Myristoyl)HNITQ; UniProt P09681 52-93, looked up)
effect on long-term potentiation (LTP; change in EPSP) compared with control (Male Wistar rats [2]): enhanced long-term potentiation (LTP) compared with control

GIP[mPEG]: C-terminal mini-PEGylated human GIP(1-42), polymer moiety HO—(CH2—O—CH2)n—H, n about 3 (YAEGTFISDYSIAMDKIHQQDFVNWLLAQKGKKNDWKHNITQ-mPEG; UniProt P09681 52-93, looked up)
effect on long-term potentiation (LTP; change in EPSP) compared with control (Male Wistar rats [2]): enhanced long-term potentiation (LTP) compared with control

N-AcGIP: N-terminally acetylated human GIP(1-42)
effect on long-term potentiation (LTP; change in EPSP) compared with control (Male Wistar rats [2]): enhanced long-term potentiation (LTP) compared with control
effect on βA(25-35)-induced impairment of LTP (Male Wistar rats [3]; 15 nmol icv, 100 nmol βA(25-35) injected 30 min later, LTP induced 15 min post-βA injection, p<0.001 vs βA group): attenuated the βA(25-35)-induced impairment of LTP

Pro(3)GIP: human GIP(1-42) in which Glu at position 3 has been replaced with L-Pro (YAPGTFISDYSIAMDKIHQQDFVNWLLAQKGKKNDWKHNITQ; Synthetic analogue derived from human GIP(1-42))
effect on long-term potentiation (LTP; change in EPSP) compared with control (Male Wistar rats [1]; [4]): attenuated long-term potentiation (LTP) compared with control

βA(25-35): beta-amyloid fragment 25-35, synthesised peptide used to impair LTP (GSNKGAIIGLM; Amyloid-beta protein 42; UniProt P05067 696-706, looked up, fragment) [reference compound]
effect on long-term potentiation (LTP; change in EPSP) compared with control (Male Wistar rats [1]; 10 nmol icv, LTP induced 15 min post-injection, p<0.01, n=6, FIG. 2): impaired long-term potentiation (LTP) compared with control
effect on long-term potentiation (LTP; change in EPSP) compared with control (Male Wistar rats [1]; 100 nmol icv, LTP induced 15 min post-injection, p<0.005, n=6, FIG. 2): LTP development was also impaired
effect on LTP compared with control (Example 5 experiment) (Male Wistar rats [3]; 100 nmol icv alone, LTP induced 15 min post-injection, p<0.001): difference between the βA(25-35) group and control
